Entries after “also recorded” stand apart in the source; their conditions may differ. Peptide text beside a SMILES is read from it. * marks the point of attachment. βNA = c1ccc2cc(N*)ccc2c1
Legend:
NK cells [1] = assay: Granzyme B expression by flow cytometry after IL-15 or IL-21 stimulation with or without signalling inhibitors; assay type: cell-based, human
Excerpt: Isolated PBMC were stained for flow cytometric analysis using an appropriate combination of the following antibodies, followed by the name of the clone in brackets: CD14-V500 (M5E2), CD19-V500 (HIB19), CD3-V500 (UCHT1), CD56 ECD (N901) CD57-PB (HCD57), CD57 purified (TB01), anti-mouse-IgM-EF650 (II/41), NKG2A-PE, APC or APC.AF750 (Z199), CD16-BV785 (3G8), KIR2DL3-FITC, KIR2DL1-APC or APC-Vio770 (REA284), KIR3DL1-AF700 or BV421 (D×9), KIR2DS4-QD585 (1847), KIR3DL2-biotin (D×31), KIR2DL2/L3/S2-PE.Cy5.5 (GL183), KIR2DL1/S1-PE.Cy7 (EB6) or PE-Vio770 (11 PB6). Dead cells were labelled using live/dead aqua (Life technologies). Biotin-conjugated antibodies were visualized using streptavidin-Qdot 585 or 605 (Life technologies). After surface staining, cells were fixed and permeabilized using a fixation/permeabilization kit (BD Bioscience Cytofix/Cytoperm) prior to intracellular staining with anti-granzyme B-A700 (GB11). Samples were acquired using an LSRII flow cytometer (Becton Dickinson) and data was analysed using FlowJo V10.0.8 (TreeStar).

primary NK cells [2] = assay: Confocal imaging of primary NK cells exposed to PIKfyve inhibitors (LAMP-1 / granzyme B staining); assay type: cell-based, human; details: for secretory lysosome size: 1 μM overnight, LAMP-1 staining, FIG. 10
Method: Sorted NK cells were prepared for confocal microscopy using fixation/permeabilization (BD Bioscience Cytofix/Cytoperm) prior to intracellular staining with mouse anti-human granzyme B-A647 (GB11), rabbit anti-human pericentrin (Ab4448) followed by Donkey anti-Rabbit IgG Alexa555 and donkey anti-mouse-A568. After staining, the fixed cells were adhered to glass cover slips using Cell Tak (Corning) and mounted using Pro-long Gold Antifade with DAPI. The cells were examined with a Zeiss LSM 710 confocal microscope (Carl Zeiss Microlmaging GmbH) equipped with an Ar-Laser Multiline (458/488/514 nm), a DPSS-561 10 (561 nm), a Laser diode 405-30 CW (405 nm), and a HeNe-laser (633 nm). The objective used was a Zeiss plan-Apochromat 63×NA/1.4 oil DICII. Image processing and analysis were performed with basic software ZEN 2011 (Carl Zeiss Microlmaging GmbH) and Imaris 7.7.2 (Bitplane AG). Confocal z-stacks were deconvolved using Huygens Essential 14.06 (Scientific Volume Imaging b.v.), and visualized with Imaris.
Cells were surface-stained with anti-human HLA-ABC antibody (W6/32, BioLegend) prior to settlement on CelITak-coated slides for 20 minutes, followed by fixation with 4% paraformaldehyde. Intracellular staining was performed by incubation with anti-human LAMP-1 (Ab24170, Abcam) for 4h, followed by donkey anti-rabbit-A488 antibody (abcam) and donkey anti-mouse-A568 antibody (Abcam) and Hoechst33342.
Where indicated, cells were stained with mouse anti-human granzyme B-A647 (GB11) instead of anti-HLA-ABC, followed by donkey anti-mouse-A568.

NK cells [3] = assay: Degranulation (CD107a) and intracellular IFN-γ functional assay, NK cells stimulated with K562 target cells; assay type: cell-based, human; details: for IFN-γ response to K562 cells / degranulation (CD107a) in response to K562 cells: 5 h, 1:1 ratio, GPN 50 μM, mefloquine 10 μM, siramesine 10 μM, vacuolin-1 10 μM
Method: (§1) Functional assays were performed at 37° C. in complete medium (RPMI+10% FCS) for the times indicated. Purified NK cells were incubated with K562 target cells for 5 hours at a ratio of 1:1 in the presence of anti-CD107a-FITC (biolegend) for degranulation assays, or with the addition of Brefeldin A (GolgiPlug BD) for degranulation plus intracellular cytokine assays. Treatment with lysosomotropic reagents were performed for the duration of the assay using the following final concentrations; glycyl-L-phenylalanine-β-naphthylamide (GPN, 50 μM), mefloquine (10 μM), siramesine (10 μM), vacuolin-1 (10 μM). Stimulation with PMA (1 μg/mL) and ionomycin (0.5 μM), or with thapsigargin (1 μM) and/or U18666a (2 μg/mL) were performed for the times indicated, and the cells were stained for CD107a surface expression post-stimulation.

primary NK cells [4] = assay: Phospho-flow cytometry after CD16 ligation; assay type: cell-based, human; details: 1 h pre-treatment, GPN 50 μM or vacuolin-1 10 μM
Method: Functional assays for phospho-flow cytometry were performed at 37° C. in complete medium in NK cell suspensions between 5-10 M/mL for 20 min. Cells were pre-treated for 1 h using GPN (50 μM) or vacuolin-1 (10 μM), after which biotinylated CD16 (Biolegend, clone 3G8) was added to final concentrations of 5 μg/mL each. After 1 min, the aliquot for the 0 min (unstimulated) sample was taken out and mixed with Fix Buffer I (BD Biosciences). After one additional minute, the stimulation was started by crosslinking the biotinylated antibodies via 50 μg/mL avidin (Thermo Fischer Scientific) and the aliquots for the 5 min, 10 min and 20 min samples were transferred into Fix Buffer I (BD bioscience) at the corresponding time points. Cells were fixed at 37° C. for 10 min, washed and re-suspended in PBS. To allow combination of the differently stimulated samples into one, two dimensional fluorescent cell barcoding (FCB) was utilized. Samples were stained in distinct concentrations of amine-reactive pacific blue succinimidyl ester (Thermo Fisher Scientific) for the time points (0 min-0.69 ng/mL, 5 min-6.25 ng/mL, 10 min-25 ng/mL and 20 min-100 ng/mL) in combination with amine-reactive pacific orange succinimidyl ester (Thermo Fisher Scientific) for the different stimulations (control—10 ng/mL, GPN—100 ng/mL and vacuolin-1-500 ng/mL). After 20 min at RT, samples were washed twice in wash solution (PBS supplemented with 1% FCS and 0.09% sodium azide), combined, permeabilized (Perm Buffer III, BD Biosciences) and stored at −80° C. For thawing, samples were incubated 20 min on ice. Then, they were washed in wash solution and stained with Alexa Fluor 647-conjugated phospho epitope-specific antibodies against ZAP70/syk (pY319/pY352), Lck (pY505), Erk1/2 (pT202/pY204) (BD Bioscience), NF-κB p65 (pS536) (Cell Signaling Technologies) or isotype control IgG1K (BD Biosciences) for 30 min at RT. After washing data was acquired on an LSR Fortessa (BD Biosciences) and analysed in with FlowJo v10.0.8 (TreeStar).

NK cells [5] = assay: Viability of NK cells exposed to lysosomotropic compounds; assay type: cell-based, human; details: at the doses tested, FIG. 15A
NK cells [6] = assay: CD107a mobilization after PMA/Ionomycin stimulation; assay type: cell-based, human; details: indicated doses of GPN, FIG. 14D-E
Method: as §1

NK cells [7] = details: positive control, known property; cited from earlier work

## CCC(=O)N1CCN(c2ccc(-n3c(=O)ccc4cnc5ccc(-c6cnc7ccccc7c6)cc5c43)cc2C(F)(F)F)CC1 [Torin-1]
NK cells [1]; 24 h IL-15 or IL-21, self- and non-self-specific NK cells
  cytokine-induced increase in granzyme B: reversed the cytokine-induced increase in granzyme B
NK cells [1]; before cytokine stimulation, FIG. 6
  pre-existing constitutive levels of granzyme B: did not further reduce

## Ic1cccc(/C=N/Nc2nc(N3CCOCC3)nc(N(c3ccccc3)c3ccccc3)n2)c1 [vacuolin-1]
Primary NK cells [2]
  secretory lysosome size: increase in secretory lysosome size
Primary NK cells [2]; vacuolin-1 treatment, FIG. 11
  clustering of granzyme B within secretory lysosomes: clustering of Granzyme B inside the secretory lysosomes; also recorded: cause granzyme B to cluster within the large secretory lysosomes formed
NK cells [3]
  IFN-γ response to K562 cells: enhanced
  degranulation (CD107a) in response to K562 cells: enhanced
NK cells [3]; resting NK cells, no target cell stimulation
  NK cell function, compound alone: had no effect
Primary NK cells [4]
  propagation of down-stream signals, in particular NF-κB: increased
  upstream signalling (ZAP70 and Lck phosphorylation) following ligation of CD16: minimal effect

## NCC(=O)N[C@@H](Cc1ccccc1)C(=O)Nc1ccc2ccccc2c1 [GPN, glycyl-L-phenylalanine-beta-naphthylamide] (H-Gly-Phe-βNA)
NK cells [3]
  IFN-γ response to K562 cells: reduced corresponding IFN-γ expression
  degranulation (CD107a) in response to K562 cells: abrogate specific degranulation
NK cells [5]
  general cellular toxicity (NK cell viability): none of these compounds showed any general cellular toxicity
NK cells [6]
  threshold for PMA/I-induced activation in self-specific NK cells: reversed the higher threshold for PMA/I-induced activation
Primary NK cells [4]
  propagation of down-stream signals, in particular NF-κB: decreased
  upstream signalling (ZAP70 and Lck phosphorylation) following ligation of CD16: minimal effect

## COC(=O)[C@H](CC(C)C)NC(=O)[C@@H](N)CC(C)C [LeuLeuOMe, L-Leucyl-L-leucine methyl ester]
NK cells [7]
  induction of apoptosis in immune cells: known to induce apoptosis in immune cells

## OC(c1cc(C(F)(F)F)nc2c(C(F)(F)F)cccc12)C1CCCCN1 (stereo not shown) [Mefloquine]
NK cells [5]
  general cellular toxicity (NK cell viability): none of these compounds showed any general cellular toxicity

## IL-15: cytokine used to prime NK cells
NK cells [1]; CD56bright NK cells
  granzyme B response to cytokine priming, CD56bright NK cells: responded to priming by IL-15
NK cells [1]
  granzyme B response to cytokine stimulation, CD56dim NK cells: increases in the level of granzyme B

## Fc1ccc(-n2cc(CCCCN3CCC4(CC3)OCc3ccccc34)c3ccccc32)cc1 [Siramesine]
NK cells [5]
  general cellular toxicity (NK cell viability): none of these compounds showed any general cellular toxicity

## IL-21: cytokine used to prime NK cells
NK cells [1]
  granzyme B response to cytokine stimulation, CD56dim NK cells: increases in the level of granzyme B

## Cc1cccc(/C=N/Nc2cc(N3CCOCC3)nc(OCCc3ccccn3)n2)c1 [apilimod]
Primary NK cells [2]
  secretory lysosome size: increase in secretory lysosome size

Reference: patent publication US20190225941A1, “MODULATION OF FUNCTION OF IMMUNE EFFECTOR CELLS” (OSLO UNIVERSITETSSYKEHUS HF, priority 2016, published 2019)
